Laboratory results from PMC6514978, “Synthesis, Antibacterial Activities, Mode of Action and Acute Toxicity Studies of New Oxazolidinone-Fluoroquinolone Hybrids” (Molecules, 2019).
≈ marks a conversion by molar mass, not a printed value. Where two headings read alike, the source gives them in different places. Blank lines part the entries; values can stand above or below the molecule they belong to.

What was measured:
[1] = test system: S. agalactiae^R (13B317), levofloxacin-resistant S. agalactiae; test: MIC, broth microdilution (CLSI), clinical isolate; format: cell-based; details: Streptococcus agalactiae; levofloxacin-resistant S. agalactiae (13B317)
Source text: (§1) 6 standard strains and 3 clinical isolates were used to the preliminary evaluation of in vitro antibacterial activities of oxazolidinone-fluoroquinolone hybrids. For the further evaluation of hybrids OBP-4 and OBP-5, 263 clinical isolates including S. aureus (46), S. haemolyticus(32), S. epidermidis (10), E. faecalis (72), E. faecium (47), S. pneumoniae (13), H. parasuis (34), S. suis (9), and 8 resistant strains including MRSA, MRSE, CIP-resistant S. aureus and S. haemolyticus, VAN and quinolone-resistant S. pneumoniae, LZD-resistant E. faecalis, LZD/VAN and quinolone-resistant E. faecium were collected and tested.
(§2) Susceptibility testing of oxazolidinone-fluoroquinolone hybrids against various bacteria was performed by the broth microdilution method as outlined by the Clinical and Laboratory Standards Institute (CLSI). Three types of media, including cation-adjusted Mueller Hinton broth, Haemophilus Test Medium and cation-adjusted Mueller Hinton broth that contained 3%–5% lysed horse blood, were used to culture the corresponding bacteria. All compounds including comparator drugs were dissolved in an appropriate solvent at a concentration of 2.048 mg/mL and then serially diluted two-fold to provide the required concentrations. A final inoculum of 5 × 10^5 CFU/mL was used and plates were read after incubation for 16–24 h at 35 °C. […] Standard quality control strains (ATCC) were included throughout. Each determination was repeated in triplicate.

MRSA (13B262) = test: MIC, broth microdilution (CLSI), clinical isolate; format: cell-based; details: Staphylococcus aureus
Source text: as §1, §2

VRE (13B330) = test: MIC, broth microdilution (CLSI), clinical isolate; format: cell-based, vancomycin-resistant enterococcus; details: Enterococcus
Source text: as §1, §2

[2] = test system: H. influenzae (ATCC49247); test: MIC, broth microdilution (CLSI), standard strain; format: cell-based; details: Haemophilus influenzae
Source text: as §1, §2

[3] = test system: P. Aeruginosa (ATCC27853); test: MIC, broth microdilution (CLSI), standard strain; format: cell-based; details: Pseudomonas aeruginosa; P. Aeruginosa (ATCC27853); read-out: MIC
Source text: as §1, §2

E. coli (ATCC25922) = test: MIC, broth microdilution (CLSI), standard strain; format: cell-based; details: Escherichia coli; E. coli (ATCC25922); read-out: MIC
Source text: as §1, §2

S. aureus (ATCC29213) = test: MIC, broth microdilution (CLSI), standard strain; format: cell-based; details: Staphylococcus aureus
Source text: as §1, §2

[4] = test system: S. pneumoniae (ATCC49619); test: MIC, broth microdilution (CLSI), standard strain; format: cell-based; details: Streptococcus pneumoniae
Source text: as §1, §2

E. faecalis (ATCC29212) = test: MIC, broth microdilution (CLSI), standard strain; format: cell-based; details: Enterococcus faecalis
Source text: as §1, §2

[5] = test system: H. parasuis (34) clinical isolates; test: Susceptibility of clinical isolates (MIC); format: cell-based, Haemophilus parasuis; details: H. parasuis, 34 clinical isolates
Experimental: as §2, with “All compounds including comparator drugs were dissolved in an appropriate solvent at a concentration of 2.048 mg/mL and then serially diluted two-fold to provide the required concentrations.” left out

[6] = test system: S. epidermidis (10) clinical isolates; test: Susceptibility of clinical isolates (MIC); format: cell-based, Staphylococcus epidermidis; details: Staphylococcus epidermidis, S. epidermidis, 10 clinical isolates
Experimental: as §2, with “All compounds including comparator drugs were dissolved in an appropriate solvent at a concentration of 2.048 mg/mL and then serially diluted two-fold to provide the required concentrations.” left out

[7] = test system: LZD-resistant E. faecalis; test: microbe, parasite or virus in culture; format: cell-based; details: Enterococcus faecalis
Experimental: (§3) 6 standard strains and 3 clinical isolates were used to the preliminary evaluation of in vitro antibacterial activities of oxazolidinone-fluoroquinolone hybrids.
as §2, with “All compounds including comparator drugs were dissolved in an appropriate solvent at a concentration of 2.048 mg/mL and then serially diluted two-fold to provide the required concentrations.” left out

[8] = test system: S. pneumoniae (13) clinical isolates; test: Susceptibility of clinical isolates (MIC); format: cell-based, Streptococcus pneumoniae; details: Streptococcus pneumoniae, S. pneumoniae, 13 clinical isolates
Experimental: as §2, with “All compounds including comparator drugs were dissolved in an appropriate solvent at a concentration of 2.048 mg/mL and then serially diluted two-fold to provide the required concentrations.” left out

[9] = test system: E. faecalis (72) clinical isolates; test: Susceptibility of clinical isolates (MIC); format: cell-based, Enterococcus faecalis; details: E. faecalis, 72 clinical isolates
Experimental: as §2, with “All compounds including comparator drugs were dissolved in an appropriate solvent at a concentration of 2.048 mg/mL and then serially diluted two-fold to provide the required concentrations.” left out

[10] = test system: S. aureus (46) clinical isolates; test: Susceptibility of clinical isolates (MIC); format: cell-based, Staphylococcus aureus; details: Staphylococcus aureus, S. aureus, 46 clinical isolates
Experimental: as §2, with “All compounds including comparator drugs were dissolved in an appropriate solvent at a concentration of 2.048 mg/mL and then serially diluted two-fold to provide the required concentrations.” left out

[11] = test system: S. haemolyticus (32) clinical isolates; test: Susceptibility of clinical isolates (MIC); format: cell-based, Staphylococcus haemolyticus; details: Staphylococcus haemolyticus, S. haemolyticus, 32 clinical isolates
Experimental: as §2, with “All compounds including comparator drugs were dissolved in an appropriate solvent at a concentration of 2.048 mg/mL and then serially diluted two-fold to provide the required concentrations.” left out

[12] = test system: E. faecium (47) clinical isolates; test: Susceptibility of clinical isolates (MIC); format: cell-based, Enterococcus faecium; details: Enterococcus faecium, E. faecium, 47 clinical isolates
Experimental: as §2, with “All compounds including comparator drugs were dissolved in an appropriate solvent at a concentration of 2.048 mg/mL and then serially diluted two-fold to provide the required concentrations.” left out

[13] = test system: S. suis (9) clinical isolates; test: Susceptibility of clinical isolates (MIC); format: cell-based, Streptococcus suis; details: Streptococcus suis, S. suis, 9 clinical isolates
Experimental: as §2, with “All compounds including comparator drugs were dissolved in an appropriate solvent at a concentration of 2.048 mg/mL and then serially diluted two-fold to provide the required concentrations.” left out

MRSE = test: MIC against drug-resistant strain; format: cell-based, S. epidermidis; details: Staphylococcus epidermidis, read-out: MIC
Experimental: as §3
as §2, with “All compounds including comparator drugs were dissolved in an appropriate solvent at a concentration of 2.048 mg/mL and then serially diluted two-fold to provide the required concentrations.” left out

[14] = test system: VAN and quinolone-resistant E. faecium; test: MIC against drug-resistant strain; format: cell-based; details: Enterococcus faecium; E. faecium, VAN and quinolone-resistant; read-out: MIC
Experimental: as §3
as §2, with “All compounds including comparator drugs were dissolved in an appropriate solvent at a concentration of 2.048 mg/mL and then serially diluted two-fold to provide the required concentrations.” left out

[15] = test system: LZD and quinolone-resistant E. faecium; test: MIC against drug-resistant strain; format: cell-based; details: Enterococcus faecium; E. faecium, LZD and quinolone-resistant; read-out: MIC
Experimental: as §3
as §2, with “All compounds including comparator drugs were dissolved in an appropriate solvent at a concentration of 2.048 mg/mL and then serially diluted two-fold to provide the required concentrations.” left out

MRSA = test: MIC against drug-resistant strain; format: cell-based; details: Staphylococcus aureus, read-out: MIC
Experimental: as §3
as §2, with “All compounds including comparator drugs were dissolved in an appropriate solvent at a concentration of 2.048 mg/mL and then serially diluted two-fold to provide the required concentrations.” left out

[16] = test system: VAN and quinolone-resistant S. pneumoniae; test: MIC against drug-resistant strain; format: cell-based; details: Streptococcus pneumoniae; S. pneumoniae, VAN and quinolone-resistant; read-out: MIC
Experimental: as §3
as §2, with “All compounds including comparator drugs were dissolved in an appropriate solvent at a concentration of 2.048 mg/mL and then serially diluted two-fold to provide the required concentrations.” left out

CIP-resistant S. aureus = test: MIC against drug-resistant strain; format: cell-based; details: Staphylococcus aureus; S. aureus, CIP-resistant; read-out: MIC
Experimental: as §3
as §2, with “All compounds including comparator drugs were dissolved in an appropriate solvent at a concentration of 2.048 mg/mL and then serially diluted two-fold to provide the required concentrations.” left out

[17] = test system: CIP-resistant S. haemolyticus; test: MIC against drug-resistant strain; format: cell-based; details: Staphylococcus haemolyticus; S. haemolyticus, CIP-resistant; read-out: MIC
Experimental: as §3
as §2, with “All compounds including comparator drugs were dissolved in an appropriate solvent at a concentration of 2.048 mg/mL and then serially diluted two-fold to provide the required concentrations.” left out

[18] = E. faecalis (ATCC29212), read-out: MIC

MIC [1]: 0.125 µg/mL (≈ 0.213 µM)
MIC (MRSA (13B262)): 0.5 µg/mL (≈ 0.854 µM)
MIC (VRE (13B330)): 0.25 µg/mL (≈ 0.427 µM)
MIC [2]: 1 µg/mL (≈ 1.71 µM)
MIC [3]: 64 µg/mL (≈ 109 µM)
MIC (E. coli (ATCC25922)): 8 µg/mL (≈ 13.7 µM)
MIC (S. aureus (ATCC29213)): 0.5 µg/mL (≈ 0.854 µM)
MIC [4]: 0.062 µg/mL (≈ 0.106 µM)
MIC (E. faecalis (ATCC29212); [18]): 0.5 µg/mL (≈ 0.854 µM)
Structure (SMILES): O=C(O)c1cn(C2CC2)c2cc(N3CCC(O)(COc4ccc(N5C[C@H](CO)OC5=O)cc4F)CC3)c(F)cc2c1=O [CZD, cadazolid, reference compound]

Structure (SMILES): CCN1CCN(c2cc3c(cc2F)c(=O)c(C(=O)O)cn3C2CC2)CC1 [ENR, enrofloxacin]
MIC50 ([5]; Glaesserella parasuis, read-out: MIC50): ≤ 0.0625 µg/mL
MIC90 ([5]; Glaesserella parasuis, read-out: MIC90): 1 µg/mL (≈ 2.78 µM)
MIC Range [5]: ≤0.0625 to 1 µg/mL
MIC50 ([6]; read-out: MIC50): 2 µg/mL (≈ 5.56 µM)
MIC90 ([6]; read-out: MIC90): 4 µg/mL (≈ 11.1 µM)
MIC ([6]; read-out: MIC Range): 0.125 to 4 µg/mL (≈ 0.348 to 11.1 µM)
MIC [7]: 1 µg/mL (≈ 2.78 µM)
MIC50 ([8]; read-out: MIC50): 32 µg/mL (≈ 89 µM)
MIC90 ([8]; read-out: MIC90): > 32 µg/mL
MIC Range [9]: ≤0.0625 to 2 µg/mL
MIC50 ([9]; Enterococcus faecalis): 0.5 µg/mL (≈ 1.39 µM)
MIC90 ([9]; Enterococcus faecalis): 0.5 µg/mL (≈ 1.39 µM)
MIC50 ([10]; read-out: MIC50): 2 µg/mL (≈ 5.56 µM)
MIC90 ([10]; read-out: MIC90): 4 µg/mL (≈ 11.1 µM)
MIC ([10]; read-out: MIC Range): 0.0625 to 8 µg/mL (≈ 0.174 to 22.3 µM)
MIC50 ([11]; read-out: MIC50): ≤ 0.0625 µg/mL
MIC90 ([11]; read-out: MIC90): 0.5 µg/mL (≈ 1.39 µM)
MIC ([11]; read-out: MIC Range): 0.0625 to 8 µg/mL (≈ 0.174 to 22.3 µM)
MIC50 ([12]; read-out: MIC50): 2 µg/mL (≈ 5.56 µM)
MIC90 ([12]; read-out: MIC90): 32 µg/mL (≈ 89 µM)
MIC50 ([13]; read-out: MIC50): 0.25 µg/mL (≈ 0.696 µM)
MIC90 ([13]; read-out: MIC90): 4 µg/mL (≈ 11.1 µM)
MIC ([13]; read-out: MIC Range): 0.0625 to 8 µg/mL (≈ 0.174 to 22.3 µM)
MIC (MRSE): ≤ 0.0625 µg/mL
MIC [14]: > 32 µg/mL
MIC [15]: > 32 µg/mL
MIC (MRSA): 0.25 µg/mL (≈ 0.696 µM)
MIC [16]: > 32 µg/mL
MIC (CIP-resistant S. aureus): 2 µg/mL (≈ 5.56 µM)
MIC [17]: 8 µg/mL (≈ 22.3 µM)

Structure (SMILES): COc1c(N2C[C@@H]3CCCN[C@@H]3C2)c(F)cc2c(=O)c(C(=O)O)cn(C3CC3)c12 [MXF, moxifloxacin, reference compound]
MIC [1]: 4 µg/mL (≈ 9.96 µM)
MIC (MRSA (13B262)): 8 µg/mL (≈ 19.9 µM)
MIC (VRE (13B330)): 64 µg/mL (≈ 159 µM)
MIC [2]: 0.008 µg/mL (≈ 0.0199 µM)
MIC [3]: 4 µg/mL (≈ 9.96 µM)
MIC (E. coli (ATCC25922)): 0.016 µg/mL (≈ 0.0399 µM)
MIC (S. aureus (ATCC29213)): 0.031 µg/mL (≈ 0.0772 µM)
MIC [4]: 0.062 µg/mL (≈ 0.154 µM)
MIC (E. faecalis (ATCC29212); ATCC29212): 0.125 µg/mL (≈ 0.311 µM)

MIC [1]: 0.5 µg/mL (≈ 0.83 µM)
MIC (MRSA (13B262)): 2 µg/mL (≈ 3.32 µM)
MIC (VRE (13B330)): 1 µg/mL (≈ 1.66 µM)
MIC [2]: 1 µg/mL (≈ 1.66 µM)
MIC [3]: 64 µg/mL (≈ 106 µM)
MIC (E. coli (ATCC25922)): 4 µg/mL (≈ 6.64 µM)
MIC (S. aureus (ATCC29213)): 1 µg/mL (≈ 1.66 µM)
MIC [4]: 0.25 µg/mL (≈ 0.415 µM)
MIC (E. faecalis (ATCC29212); [18]): 1 µg/mL (≈ 1.66 µM)
Structure (SMILES): CN1COc2c(N3CCC(O)(COc4ccc(N5C[C@H](CO)OC5=O)cc4F)CC3)c(F)cc3c(=O)c(C(=O)O)cn1c23 [OBP-1]
